Laboratory results reported in patent US20170166598A1, “HETEROARYL COMPOUNDS FOR KINASE INHIBITION” (ARIAD PHARMACEUTICALS, INC., priority 2014, published 2017).
pIC50: −log10 of the molar value.

Key:
Type in all cases: cell-based
[1] = target: T1, human EGFR exon 20 insertion ASV (V769_D770insASV) (Homo sapiens, UniProt P00533, INS769ASV); assay: Ba/F3-EGFR-Exon20-ASV cell anti-proliferative assay (CellTiter 96 MTS, 72 h); settings: Ba/F3-EGFR-Exon20-ASV cells
T1 construct: expressed in transfected cells; host or cells: Ba/F3 (murine pro-B) cells transduced with lentivirus from pLVX-IRES puro
How it was run: (§1)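 Ba/F3 cells made IL-3-independent by lentiviral EGFR exon 20 NPG or ASV insertion were exposed 72 h at 37 °C to 4-fold dilutions of compound (top 10,000 nM). Viability read by MTS tetrazolium conversion, absorbance 490 nm after 2 h.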

[2] = target: T2, human EGFR exon 20 insertion NPG (H773_V774insNPG) (Homo sapiens, UniProt P00533, INS772GNP); assay: Ba/F3-EGFR-Exon20-NPG cell anti-proliferative assay (CellTiter 96 MTS, 72 h); settings: Ba/F3-EGFR-Exon20-NPG cells
T2 construct: expressed in transfected cells; host or cells: Ba/F3 (murine pro-B) cells transduced with lentivirus from pLVX-IRES puro
How it was run: as §1

[3] = target: T3, human EGFR E746-A750 deletion and T790M Mutation (Homo sapiens, UniProt P00533, DEL746-750/T790M); assay: Ba/F3-EGFR-Del/T790M cell anti-proliferative assay (CellTiter 96 MTS, 72 h); settings: Ba/F3-EGFR-Del/T790M cells
T3 construct: expressed in transfected cells; host or cells: Ba/F3 (murine pro-B) cells transduced with lentivirus from pLVX-IRES puro
How it was run: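 Ba/F3 cells made IL-3-independent by lentiviral human EGFR E746-A750 del/T790M, puromycin-selected. Cells treated 72 h at 37 °C with compound, 4-fold dilutions from 10,000 nM top concentration. Viability read by MTS tetrazolium-to-formazan conversion, absorbance at 490 nm after 2 h with reagent.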

[4] = target: T4, human EGFR L858R and T790M double mutation (Homo sapiens, UniProt P00533, L858R/T790M); assay: Ba/F3-EGFR L858R/T790M cell anti-proliferative assay (CellTiter 96 MTS, 72 h); settings: Ba/F3-EGFR L858R/T790M cells
T4 construct: expressed in transfected cells; host or cells: Ba/F3 (murine pro-B) cells transduced with lentivirus from pLVX-IRES puro
Protocol: An expression vector, pLVX-IRES puro (Clontech) coding for human EGFR L858R and T790M double mutation, was transfected into HEK293 cells by the Trans-Lentiviral ORF Packaging System (Thermo Scientific), to produce virus encoding EGFR L858R and T790M double mutations. Ba/F3 (DSMZ) cells maintained in RPMI 1640 medium supplemented with 10% fetal bovine serum, 200 μM L-glutamine/l 200 μg/mL penicillin/200 μg/mL streptomycin (Life Technology) and 10 ng/mL IL-3 (R&D system), were infected by EGFR L858R and T790M double mutation virus and subsequently selected by puromycin (Life Technology) selection and IL-3 depletion. […] The anti-proliferative activity of compounds was determined as follows: BaF3-EGFR L858R/T790M cells seeded in 96 well plates (2500 cells/well) were treated with test compound (dissolved in DMSO) at a series of concentrations (4-fold dilution, top concentration: 10,000 nM). The plates were incubated for 72 h in a 37° C. incubator with 5% CO2, and the number of viable cells in each well were measured indirectly by CellTiter 96® Aqueous One Solution Cell Proliferation Assay (Promega; this assay is a colorimetric method for determining the number of viable cells through measurement of their metabolic activity by detection of enzymatic conversion of tetrazolium salts into blue formazan derivatives). Reagent (20 μL) was added into each well, and the plates were returned to the incubator for 2 h. The absorbance in each well was then measured at 490 nm using an Envision plate reader (Perkin Elmer).

[5] = target: T5, Her2 exon 20 YVMA insertion (A775_G776ins YVMA) (Homo sapiens, UniProt P04626, INS775YVMA); assay: Ba/F3-Her2 Exon20 YVMA cell anti-proliferative assay (CellTiter 96 MTS, 72 h); settings: Ba/F3-Her2 Exon20 YVMA cells
T5 construct: expressed in transfected cells; host or cells: Ba/F3 (murine pro-B) cells transduced with lentivirus from pLVX-IRES puro
How it was run: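 IL-3-independent Ba/F3 cells transduced with the YVMA insertion were treated with compound in 4-fold dilutions from 10,000 nM top. After 72 h at 37° C, viable cells were quantified by MTS tetrazolium conversion, with absorbance read at 490 nm after 2 h.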

T4 sequence (P00533 25-1210 T790M/L858R): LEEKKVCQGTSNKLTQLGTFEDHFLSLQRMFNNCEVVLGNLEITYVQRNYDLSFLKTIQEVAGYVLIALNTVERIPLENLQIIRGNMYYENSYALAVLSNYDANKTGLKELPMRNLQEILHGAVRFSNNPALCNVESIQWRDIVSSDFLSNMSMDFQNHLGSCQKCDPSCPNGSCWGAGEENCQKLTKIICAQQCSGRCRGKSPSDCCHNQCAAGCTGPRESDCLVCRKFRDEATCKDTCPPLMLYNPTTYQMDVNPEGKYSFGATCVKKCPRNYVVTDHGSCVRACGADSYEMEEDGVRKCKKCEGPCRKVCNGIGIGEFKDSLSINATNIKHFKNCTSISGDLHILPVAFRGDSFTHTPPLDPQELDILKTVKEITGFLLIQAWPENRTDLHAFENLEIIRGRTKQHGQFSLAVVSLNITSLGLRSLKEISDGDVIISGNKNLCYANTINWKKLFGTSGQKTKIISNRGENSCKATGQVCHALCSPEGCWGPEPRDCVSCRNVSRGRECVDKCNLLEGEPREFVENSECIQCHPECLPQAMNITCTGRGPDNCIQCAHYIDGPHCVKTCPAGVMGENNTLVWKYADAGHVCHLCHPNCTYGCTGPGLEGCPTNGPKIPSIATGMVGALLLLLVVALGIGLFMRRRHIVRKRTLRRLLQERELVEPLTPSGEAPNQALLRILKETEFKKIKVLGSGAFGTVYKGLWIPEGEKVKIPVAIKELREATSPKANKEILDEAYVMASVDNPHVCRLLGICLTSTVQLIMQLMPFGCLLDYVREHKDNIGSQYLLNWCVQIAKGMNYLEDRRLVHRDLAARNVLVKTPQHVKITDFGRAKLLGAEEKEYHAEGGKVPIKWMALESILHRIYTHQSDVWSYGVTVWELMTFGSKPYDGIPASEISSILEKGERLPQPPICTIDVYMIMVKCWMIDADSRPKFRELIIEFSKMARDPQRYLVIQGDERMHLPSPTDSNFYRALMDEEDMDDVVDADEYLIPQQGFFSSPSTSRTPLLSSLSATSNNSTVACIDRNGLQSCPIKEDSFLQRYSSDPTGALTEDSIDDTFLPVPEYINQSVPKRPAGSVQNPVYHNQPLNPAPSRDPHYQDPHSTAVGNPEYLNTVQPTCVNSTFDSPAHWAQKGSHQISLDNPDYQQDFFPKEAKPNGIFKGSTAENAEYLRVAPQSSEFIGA
T1 sequence (P00533 with tags, fused parts or gaps INS769ASV): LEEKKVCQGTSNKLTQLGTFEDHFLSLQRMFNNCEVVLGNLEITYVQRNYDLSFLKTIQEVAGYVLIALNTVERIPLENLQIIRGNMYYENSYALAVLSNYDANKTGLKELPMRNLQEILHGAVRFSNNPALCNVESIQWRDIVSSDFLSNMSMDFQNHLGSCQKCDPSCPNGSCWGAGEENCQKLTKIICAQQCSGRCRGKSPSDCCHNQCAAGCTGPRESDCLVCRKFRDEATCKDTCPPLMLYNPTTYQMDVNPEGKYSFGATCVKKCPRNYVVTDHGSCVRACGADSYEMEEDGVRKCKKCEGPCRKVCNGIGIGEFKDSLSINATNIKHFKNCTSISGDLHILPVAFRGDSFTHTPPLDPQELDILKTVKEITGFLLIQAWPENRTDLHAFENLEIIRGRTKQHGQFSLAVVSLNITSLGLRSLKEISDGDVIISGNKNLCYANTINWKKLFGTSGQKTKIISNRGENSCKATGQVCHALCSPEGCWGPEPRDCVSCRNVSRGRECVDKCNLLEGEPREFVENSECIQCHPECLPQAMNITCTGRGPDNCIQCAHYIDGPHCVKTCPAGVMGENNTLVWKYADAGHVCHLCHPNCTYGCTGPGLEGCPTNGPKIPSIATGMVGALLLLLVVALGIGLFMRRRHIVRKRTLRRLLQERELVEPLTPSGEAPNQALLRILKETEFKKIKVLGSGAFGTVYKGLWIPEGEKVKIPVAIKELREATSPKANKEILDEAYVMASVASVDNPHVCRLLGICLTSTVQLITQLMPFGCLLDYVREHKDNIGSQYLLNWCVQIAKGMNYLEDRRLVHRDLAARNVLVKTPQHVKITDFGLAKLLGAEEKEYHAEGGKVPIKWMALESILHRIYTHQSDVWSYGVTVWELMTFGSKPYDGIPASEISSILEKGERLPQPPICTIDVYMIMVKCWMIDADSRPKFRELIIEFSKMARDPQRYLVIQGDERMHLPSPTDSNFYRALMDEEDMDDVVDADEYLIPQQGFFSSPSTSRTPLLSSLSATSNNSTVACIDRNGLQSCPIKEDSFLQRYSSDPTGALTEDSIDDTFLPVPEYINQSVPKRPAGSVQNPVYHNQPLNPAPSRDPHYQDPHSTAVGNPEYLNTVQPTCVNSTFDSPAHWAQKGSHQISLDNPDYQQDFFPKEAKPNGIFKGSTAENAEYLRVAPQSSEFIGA
T3 sequence (P00533 with tags, fused parts or gaps DEL746-750/T790M): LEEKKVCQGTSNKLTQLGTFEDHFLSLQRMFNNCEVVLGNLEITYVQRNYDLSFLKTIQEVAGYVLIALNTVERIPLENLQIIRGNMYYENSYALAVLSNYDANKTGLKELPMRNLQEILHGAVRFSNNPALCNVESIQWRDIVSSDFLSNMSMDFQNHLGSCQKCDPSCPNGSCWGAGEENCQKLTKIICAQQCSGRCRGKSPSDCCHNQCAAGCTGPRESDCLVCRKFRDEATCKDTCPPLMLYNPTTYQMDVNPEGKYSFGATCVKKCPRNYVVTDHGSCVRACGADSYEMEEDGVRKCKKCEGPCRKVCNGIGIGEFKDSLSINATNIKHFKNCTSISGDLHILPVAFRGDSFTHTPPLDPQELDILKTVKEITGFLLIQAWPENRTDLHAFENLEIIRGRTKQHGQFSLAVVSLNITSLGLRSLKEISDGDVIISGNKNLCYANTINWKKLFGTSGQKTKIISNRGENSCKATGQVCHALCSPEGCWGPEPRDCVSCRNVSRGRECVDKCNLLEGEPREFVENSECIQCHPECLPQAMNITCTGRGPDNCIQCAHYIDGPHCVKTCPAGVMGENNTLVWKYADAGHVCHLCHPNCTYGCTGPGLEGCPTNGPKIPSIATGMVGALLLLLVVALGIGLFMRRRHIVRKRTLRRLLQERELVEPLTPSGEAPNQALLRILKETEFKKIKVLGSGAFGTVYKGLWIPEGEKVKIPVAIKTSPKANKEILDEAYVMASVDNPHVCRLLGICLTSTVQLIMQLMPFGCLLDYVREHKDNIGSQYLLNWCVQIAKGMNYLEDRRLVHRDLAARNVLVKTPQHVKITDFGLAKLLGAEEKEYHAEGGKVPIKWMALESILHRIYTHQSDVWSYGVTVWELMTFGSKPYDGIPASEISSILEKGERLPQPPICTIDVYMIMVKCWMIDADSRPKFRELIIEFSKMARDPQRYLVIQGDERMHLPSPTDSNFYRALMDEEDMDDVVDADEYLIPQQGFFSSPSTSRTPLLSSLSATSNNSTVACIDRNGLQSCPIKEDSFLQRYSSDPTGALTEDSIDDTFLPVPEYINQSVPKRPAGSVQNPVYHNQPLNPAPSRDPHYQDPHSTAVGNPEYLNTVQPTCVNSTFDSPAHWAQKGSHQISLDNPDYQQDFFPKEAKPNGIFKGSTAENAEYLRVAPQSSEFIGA
T5 sequence (P04626 with tags, fused parts or gaps INS775YVMA): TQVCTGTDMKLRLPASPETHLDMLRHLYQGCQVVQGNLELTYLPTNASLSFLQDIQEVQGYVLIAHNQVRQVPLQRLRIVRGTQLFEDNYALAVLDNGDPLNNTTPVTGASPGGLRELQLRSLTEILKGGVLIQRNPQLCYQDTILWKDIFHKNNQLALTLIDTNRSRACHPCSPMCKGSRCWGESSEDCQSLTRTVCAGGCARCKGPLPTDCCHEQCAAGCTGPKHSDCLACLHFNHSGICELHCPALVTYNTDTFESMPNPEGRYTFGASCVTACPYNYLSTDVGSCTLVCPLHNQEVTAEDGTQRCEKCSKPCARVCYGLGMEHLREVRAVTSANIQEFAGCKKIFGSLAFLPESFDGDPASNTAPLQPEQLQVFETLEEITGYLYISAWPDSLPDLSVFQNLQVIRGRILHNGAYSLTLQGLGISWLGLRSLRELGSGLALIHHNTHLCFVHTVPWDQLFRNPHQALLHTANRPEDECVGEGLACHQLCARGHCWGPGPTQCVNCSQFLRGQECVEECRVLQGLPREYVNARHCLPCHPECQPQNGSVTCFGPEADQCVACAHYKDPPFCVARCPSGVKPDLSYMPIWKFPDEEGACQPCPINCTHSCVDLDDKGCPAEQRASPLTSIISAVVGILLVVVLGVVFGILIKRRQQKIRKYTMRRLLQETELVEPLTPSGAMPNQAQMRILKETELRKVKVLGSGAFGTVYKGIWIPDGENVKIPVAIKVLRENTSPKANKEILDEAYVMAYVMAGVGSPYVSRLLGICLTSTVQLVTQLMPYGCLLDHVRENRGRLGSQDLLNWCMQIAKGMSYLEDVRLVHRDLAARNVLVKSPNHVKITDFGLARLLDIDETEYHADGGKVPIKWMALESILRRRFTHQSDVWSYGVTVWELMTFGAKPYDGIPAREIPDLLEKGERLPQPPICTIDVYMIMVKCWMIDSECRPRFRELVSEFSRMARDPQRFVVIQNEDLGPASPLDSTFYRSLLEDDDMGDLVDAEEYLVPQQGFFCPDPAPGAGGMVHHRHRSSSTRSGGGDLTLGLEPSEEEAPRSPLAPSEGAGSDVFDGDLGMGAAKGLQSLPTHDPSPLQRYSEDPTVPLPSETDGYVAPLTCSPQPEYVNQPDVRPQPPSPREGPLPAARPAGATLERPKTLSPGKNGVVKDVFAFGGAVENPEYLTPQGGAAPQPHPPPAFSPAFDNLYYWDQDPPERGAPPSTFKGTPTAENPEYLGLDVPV

Row | Structure (SMILES) | pIC50 [1] | pIC50 [2] | pIC50 [5] | EGFR exon 19 deletion and exon 20 T790M mutation IC50 [3] | EGFR exon 21 L858R and exon 20 T790M mutation IC50 [4]
1 | C=CC(=O)Nc1cc(Nc2nccc(-c3cn4c5c(cccc35)OCC4)n2)c(OC)cc1N(C)CCNC [Example 105, N-(5-((4-(2,3-dihydro-[1,4]oxazino[2,3,4-hi]indol-6-yl)pyrimidin-2-yl)amino)-4-methoxy-2-(methyl(2-(methylamino)ethyl)amino)phenyl)acrylamide] | 6.30 to 7.00 | 6.30 to 7.00 | 6.00 to 6.30 | A (IC50 value for the indicated mutant below about 100 nM) | C (IC50 value for the indicated mutant between greater than about 500 to about 1 μM)
2 | C=CC(=O)Nc1cc(Nc2ncc(Cl)c(-c3cn4c5c(cccc35)CCC4)n2)c(Cl)cc1N(C)CCN(C)C [Example 12, N-(4-chloro-5-((5-chloro-4-(5,6-dihydro-4H-pyrrolo[3,2,1-ij]quinolin-1-yl)pyrimidin-2-yl)amino)-2-((2-(dimethylamino)ethyl)(methyl)amino)phenyl)acrylamide] |  | > 7.00 | 6.30 to 7.00 | A (IC50 value for the indicated mutant below about 100 nM) | A (IC50 value for the indicated mutant below about 100 nM)
3 | C=CC(=O)Nc1cc(Nc2ncc(CCC3CCOC3)c(-c3cn4c5c(cccc35)CCC4)n2)c(OC)cc1N(C)CCN(C)C (stereo not shown) [Example 36, N-(5-((4-(5,6-dihydro-4H-pyrrolo[3,2,1-ij]quinolin-1-yl)-5-(2-(tetrahydrofuran-3-yl)ethyl)pyrimidin-2-yl)amino)-2-((2-(dimethylamino)ethyl)(methyl)amino)-4-methoxyphenyl)acrylamide] | 6.30 to 7.00 | > 7.00 | 6.30 to 7.00 | A (IC50 value for the indicated mutant below about 100 nM) | B (IC50 value for the indicated mutant between about 100 to about 500 nM)
4 | C=CC(=O)Nc1cc(Nc2ncc(C#N)c(-c3cn4c5c(cccc35)CCC4)n2)c(OC)cc1N(C)CCN(C)C [Example 14, N-(5-((5-cyano-4-(5,6-dihydro-4H-pyrrolo[3,2,1-ij]quinolin-1-yl)pyrimidin-2-yl)amino)-2-((2-(dimethylamino)ethyl)(methyl)amino)-4-methoxyphenyl)acrylamide] | > 7.00 | < 6.00 | > 7.00 | A (IC50 value for the indicated mutant below about 100 nM) | A (IC50 value for the indicated mutant below about 100 nM)
5 | C=CC(=O)Nc1cc(Nc2ncc(C(=O)NCCO)c(-c3cn4c5c(cccc35)CCC4)n2)c(OC)cc1N(C)CCN(C)C [Example 48] | 6.00 to 6.30 | > 7.00 | < 6.00 | B (IC50 value for the indicated mutant between about 100 to about 500 nM) | C (IC50 value for the indicated mutant between greater than about 500 to about 1 μM)
6 | C=CC(=O)Nc1cc(Nc2ncc(Cl)c(-c3cn4c5c(cccc35)CCC4)n2)c(OC)cc1O[C@H](COCC)CN(C)C [Example 23, (S)-N-(5-((5-chloro-4-(5,6-dihydro-4H-pyrrolo[3,2,1-ij]quinolin-1-yl)pyrimidin-2-yl)amino)-2-((1-(dimethylamino)-3-ethoxypropan-2-yl)oxy)-4-methoxyphenyl)acrylamide] |  | 6.30 to 7.00 | 6.30 to 7.00 | A (IC50 value for the indicated mutant below about 100 nM) | A (IC50 value for the indicated mutant below about 100 nM)
7 | C=CC(=O)Nc1cc(Nc2ncc(Cl)c(-c3cn4c5c(cccc35)OCC4)n2)c(OC)cc1O[C@@H](COCC)CN(C)C [Example 80, (R)-N-(5-((5-chloro-4-(2,3-dihydro-[1,4]oxazino[2,3,4-hi]indol-6-yl)pyrimidin-2-yl)amino)-2-((1-(dimethylamino)-3-ethoxypropan-2-yl)oxy)-4-methoxyphenyl)acrylamide] |  | > 7.00 | 6.30 to 7.00 | A (IC50 value for the indicated mutant below about 100 nM) | A (IC50 value for the indicated mutant below about 100 nM)

The next lines start with results.

Row | pIC50 [1] | pIC50 [2] | pIC50 [5] | Structure (SMILES) | EGFR exon 19 deletion and exon 20 T790M mutation IC50 [3] | EGFR exon 21 L858R and exon 20 T790M mutation IC50 [4]
8 | > 7.00 | > 7.00 | > 7.00 | C=CC(=O)Nc1cc(Nc2ncc(CCC(O)CC)c(-c3cn4c5c(cccc35)CCC4)n2)c(OC)cc1N(C)CCN(C)C (stereo not shown) [Example 38, N-(5-((4-(5,6-dihydro-4H-pyrrolo[3,2,1-ij]quinolin-1-yl)-5-(3-hydroxypentyl)pyrimidin-2-yl)amino)-2-((2-(dimethylamino)ethyl)(methyl)amino)-4-methoxyphenyl)acrylamide] | A (IC50 value for the indicated mutant below about 100 nM) | A (IC50 value for the indicated mutant below about 100 nM)
9 | 6.30 to 7.00 | > 7.00 | 6.30 to 7.00 | C=CC(=O)Nc1cc(Nc2nccc(-c3cn4c5c(cccc35)CCC4)n2)c(OC)cc1N(C)CCNC [Example 83, N-(5-((4-(5,6-dihydro-4H-pyrrolo[3,2,1-ij]quinolin-1-yl)pyrimidin-2-yl)amino)-4-methoxy-2-(methyl(2-(methylamino)ethyl)amino)phenyl)acrylamide] | A (IC50 value for the indicated mutant below about 100 nM) | A (IC50 value for the indicated mutant below about 100 nM)
10 |  | > 7.00 | 6.30 to 7.00 | C=CC(=O)Nc1cc(Nc2ncc(Cl)c(-c3cn4c5c(cccc35)OCC4)n2)c(OC)cc1O[C@H](COCC)CN(C)C [Example 81, (S)-N-(5-((5-chloro-4-(2,3-dihydro-[1,4]oxazino[2,3,4-hi]indol-6-yl)pyrimidin-2-yl)amino)-2-((1-(dimethylamino)-3-ethoxypropan-2-yl)oxy)-4-methoxyphenyl)acrylamide] | A (IC50 value for the indicated mutant below about 100 nM) | A (IC50 value for the indicated mutant below about 100 nM)
11 | > 7.00 | > 7.00 | > 7.00 | C=CC(=O)Nc1cc(Nc2ncc(-c3nnc(C)o3)c(-c3cn4c5c(cccc35)CCC4)n2)c(OC)cc1N(C)CCN(C)C [Example 107] | A (IC50 value for the indicated mutant below about 100 nM) | A (IC50 value for the indicated mutant below about 100 nM)
12 | 6.30 to 7.00 | > 7.00 | 6.00 to 6.30 | C=CC(=O)Nc1cc(Nc2ncc(C(=O)NCCOC)c(-c3cn4c5c(cccc35)CCC4)n2)c(OC)cc1N(C)CCN(C)C [Example 47, 2-((5-acrylamido-4-((2-(dimethylamino)ethyl)(methyl)amino)-2-methoxyphenyl)amino)-4-(5,6-dihydro-4H-pyrrolo[3,2,1-ij]quinolin--yl)-N-(2-methoxyethyl)pyrimidine-5-carboxamide] | B (IC50 value for the indicated mutant between about 100 to about 500 nM) | C (IC50 value for the indicated mutant between greater than about 500 to about 1 μM)
13 | 6.30 to 7.00 | > 7.00 | 6.30 to 7.00 | C=CC(=O)Nc1cc(Nc2nccc(-c3cn4c5c(cccc35)CCC4)n2)c(OC)cc1N(C)CCN(C)C [Example 10, N-(5-((4-(5,6-dihydro-4H-pyrrolo[3,2,1-ij]quinolin-1-yl)pyrimidin-2-yl)amino)-2-((2-(dimethylamino)ethyl)(methyl)amino)-4-methoxyphenyl)acrylamide] | A (IC50 value for the indicated mutant below about 100 nM) | A (IC50 value for the indicated mutant below about 100 nM)
